# Values quoted from earlier work in publication PMC4716540 (British Journal of Cancer, 2015).
# Tested on: haematological and solid tumours
# Conditions: early clinical trials; ref Zhou et al, 2012; cited from earlier work
row,SMILES,"Visual disorders (blurred vision, flashes, delayed light/dark accommodation, photophobia)"
1,CC1(C)CC(=O)c2c(C(F)(F)F)nn(-c3ccc(C(N)=O)c(N[C@H]4CC[C@H](OC(=O)CN)CC4)c3)c2C1 [SNX-5422],associated with visual disorders
2,CO[C@H]1/C=C\C=C(/C)C(=O)NC2=CC(=O)C(NCCN(C)C)=C(C[C@@H](C)C[C@H](OC)[C@H](O)[C@@H](C)/C=C(\C)[C@@H]1OC(N)=O)C2=O [alvespimycin],associated with visual disorders
